Results reported in paper PMC10781691, “Vertical pathway inhibition of receptor tyrosine kinases and BAD with synergistic efficacy in triple negative breast cancer” (NPJ Precision Oncology, 2024).

How the values were obtained:
MDA-MB-231 cells = experiment: AlamarBlue cell viability, 3D Matrigel culture; type: cell-based, human
MDA-MB-231 xenografts = experiment: Orthotopic xenograft, single drug study; type: in vivo, BALB/c-nude mice
Procedure: Next, the in vivo efficacy of NCK was examined in mice injected orthotopically with MDA-MB-231 cells to form xenografts. When the xenograft volume reached 100 mm^3, mice were randomly grouped and injected i.p. with vehicle, NCK (5 mg/kg q.d.) or NCK (20 mg/kg q.d.) for 21 days.

[1] = NCK 5 and 20 mg/kg q.d. i.p. 21 days

Oc1ccccc1C(c1cccnc1)N1CCN(c2cccc(Cl)c2Cl)CC1 (stereo not drawn) [NCK, 2-((4-(2,3-dichlorophenyl)piperazin-1-yl)(pyridin-3-yl)methyl) phenol]
IC50 (MDA-MB-231 cells; Homo sapiens, MDA-MB-231, 3D Matrigel, AlamarBlue): 0.239 µM | growth in 3D Matrigel (MDA-MB-231 cells; MDA-MB-231, 5 μM each): reduced cell growth in 3D Matrigel | fold IC50 difference NCK vs NPB (MDA-MB-231 cells; MDA-MB-231, 3D Matrigel): ~ 6 fold | xenograft volume and weight vs vehicle (MDA-MB-231 xenografts; NCK 5 mg/kg q.d. i.p. 21 days): significantly reduced xenograft volume | xenograft volume and weight vs vehicle (MDA-MB-231 xenografts; NCK 20 mg/kg q.d. i.p. 21 days): significantly reduced xenograft volume | MKI67 positivity in xenografts (MDA-MB-231 xenografts; [1]): decreased MKI67 positivity | TUNEL scores in xenografts (MDA-MB-231 xenografts; [1]): increased TUNEL scores | body weight vs vehicle (MDA-MB-231 xenografts; [1]): no significant change in body weight | pBADSer99 in resected xenografts (IHC) vs vehicle (MDA-MB-231 xenografts; [1]): significantly reduced pBADSer99
